# Measurements as given in US20040102622A1, “Modulation of hepatocyte growth factor receptor expression” (Isis Pharmaceuticals Inc., priority 2002, published 2004).
# Test system: human hepatocyte growth factor receptor mRNA
row,Substance,inhibition of human hepatocyte growth factor receptor expression
1,"ISIS 209523: 2′-MOE gapmer, phosphorothioate backbone, sequence gggccttcattatgagaggt (antisense GGGCCTTCATTATGAGAGGT; all phosphorothioate, sugars by position and methylation of C not given here; 2'-MOE gapmer)",at least 35%
2,"ISIS 209524: 2′-MOE gapmer, phosphorothioate backbone, sequence ctcatgtagaatgacattct (antisense CTCATGTAGAATGACATTCT; all phosphorothioate, sugars by position and methylation of C not given here; 2'-MOE gapmer)",at least 35%
3,"ISIS 209525: 2′-MOE gapmer, phosphorothioate backbone, sequence ctggtccgtcaaaaacataa (antisense CTGGTCCGTCAAAAACATAA; all phosphorothioate, sugars by position and methylation of C not given here; 2'-MOE gapmer)",at least 35%
4,"ISIS 209526: 2′-MOE gapmer, phosphorothioate backbone, sequence ttgatagggaatgcacacat (antisense TTGATAGGGAATGCACACAT; all phosphorothioate, sugars by position and methylation of C not given here; 2'-MOE gapmer)",at least 35%
5,"ISIS 209527: 2′-MOE gapmer, phosphorothioate backbone, sequence cgcttcacagcctgatgaat (antisense CGCTTCACAGCCTGATGAAT; all phosphorothioate, sugars by position and methylation of C not given here; 2'-MOE gapmer)",at least 35%
6,"ISIS 209528: 2′-MOE gapmer, phosphorothioate backbone, sequence ttgggaaaaccttgtagatt (antisense TTGGGAAAACCTTGTAGATT; all phosphorothioate, sugars by position and methylation of C not given here; 2'-MOE gapmer)",at least 35%
7,"ISIS 209529: 2′-MOE gapmer, phosphorothioate backbone, sequence cccagccacatatggtcagc (antisense CCCAGCCACATATGGTCAGC; all phosphorothioate, sugars by position and methylation of C not given here; 2'-MOE gapmer)",at least 35%
8,"ISIS 209530: 2′-MOE gapmer, phosphorothioate backbone, sequence ttacaggatccacataggag (antisense TTACAGGATCCACATAGGAG; all phosphorothioate, sugars by position and methylation of C not given here; 2'-MOE gapmer)",at least 35%
9,"ISIS 209533: 2′-MOE gapmer, phosphorothioate backbone, sequence caccactggcaaagcaaaat (antisense CACCACTGGCAAAGCAAAAT; all phosphorothioate, sugars by position and methylation of C not given here; 2'-MOE gapmer)",at least 35%
10,"ISIS 209534: 2′-MOE gapmer, phosphorothioate backbone, sequence agcattacttcatataaggg (antisense AGCATTACTTCATATAAGGG; all phosphorothioate, sugars by position and methylation of C not given here; 2'-MOE gapmer)",at least 35%
11,"ISIS 209535: 2′-MOE gapmer, phosphorothioate backbone, sequence ataacaatacaagtcctatg (antisense ATAACAATACAAGTCCTATG; all phosphorothioate, sugars by position and methylation of C not given here; 2'-MOE gapmer)",at least 35%
12,"ISIS 209536: 2′-MOE gapmer, phosphorothioate backbone, sequence cctcccatactagagaagta (antisense CCTCCCATACTAGAGAAGTA; all phosphorothioate, sugars by position and methylation of C not given here; 2'-MOE gapmer)",at least 35%
13,"ISIS 209537: 2′-MOE gapmer, phosphorothioate backbone, sequence agaggtttatctgccaaaac (antisense AGAGGTTTATCTGCCAAAAC; all phosphorothioate, sugars by position and methylation of C not given here; 2'-MOE gapmer)",at least 35%
14,"ISIS 209539: 2′-MOE gapmer, phosphorothioate backbone, sequence gcttccccattgctgttagg (antisense GCTTCCCCATTGCTGTTAGG; all phosphorothioate, sugars by position and methylation of C not given here; 2'-MOE gapmer)",at least 35%
15,"ISIS 209540: 2′-MOE gapmer, phosphorothioate backbone, sequence cacatcccttgtaagttgga (antisense CACATCCCTTGTAAGTTGGA; all phosphorothioate, sugars by position and methylation of C not given here; 2'-MOE gapmer)",at least 35%
16,"ISIS 209541: 2′-MOE gapmer, phosphorothioate backbone, sequence accaagtactgtaagagagg (antisense ACCAAGTACTGTAAGAGAGG; all phosphorothioate, sugars by position and methylation of C not given here; 2'-MOE gapmer)",at least 35%
17,"ISIS 209542: 2′-MOE gapmer, phosphorothioate backbone, sequence cttgcttccactaaaaatga (antisense CTTGCTTCCACTAAAAATGA; all phosphorothioate, sugars by position and methylation of C not given here; 2'-MOE gapmer)",at least 35%
18,"ISIS 209543: 2′-MOE gapmer, phosphorothioate backbone, sequence gatgccaccgtgcactgtgc (antisense GATGCCACCGTGCACTGTGC; all phosphorothioate, sugars by position and methylation of C not given here; 2'-MOE gapmer)",at least 35%
19,"ISIS 209544: 2′-MOE gapmer, phosphorothioate backbone, sequence taatagtgcaattttggcaa (antisense TAATAGTGCAATTTTGGCAA; all phosphorothioate, sugars by position and methylation of C not given here; 2'-MOE gapmer)",at least 35%
20,"ISIS 209546: 2′-MOE gapmer, phosphorothioate backbone, sequence aattcaagttttggactcca (antisense AATTCAAGTTTTGGACTCCA; all phosphorothioate, sugars by position and methylation of C not given here; 2'-MOE gapmer)",at least 35%
21,"ISIS 209547: 2′-MOE gapmer, phosphorothioate backbone, sequence tcctgcttcaatttcccata (antisense TCCTGCTTCAATTTCCCATA; all phosphorothioate, sugars by position and methylation of C not given here; 2'-MOE gapmer)",at least 35%
22,"ISIS 209548: 2′-MOE gapmer, phosphorothioate backbone, sequence tcaagaagccctcaatattt (antisense TCAAGAAGCCCTCAATATTT; all phosphorothioate, sugars by position and methylation of C not given here; 2'-MOE gapmer)",at least 35%
23,"ISIS 209549: 2′-MOE gapmer, phosphorothioate backbone, sequence cctgagcattactatctctt (antisense CCTGAGCATTACTATCTCTT; all phosphorothioate, sugars by position and methylation of C not given here; 2'-MOE gapmer)",at least 35%
24,"ISIS 209550: 2′-MOE gapmer, phosphorothioate backbone, sequence tgcgcgctgtagtcccagct (antisense TGCGCGCTGTAGTCCCAGCT; all phosphorothioate, sugars by position and methylation of C not given here; 2'-MOE gapmer)",at least 35%
